Measurements as given in patent publication US7018989B2, “Chemical compounds” (University College Cardiff Consultants, LTD, priority 1995, dated 2006).
Like-named read-outs stand apart in the source and are kept apart here.

Key:
CEM cells = test: Toxicity to CEM cells; type: cell-based, human; details: Table 6; mean of two or more repeat experiments
Method: (§1) Cells were infected with HIV-1 as previously described [Balzarini et al. AIDS (1991), 5, 21–28]. Briefly, 5×10^5 cells per milliliter were infected with HIV-1 or HIV-2 at 100 CCID50 (50% cell culture infective dose) per milliliter of cell suspension. Then 100 μL of the infected cell suspension was transferred to microtiter plate wells and mixed with 100 μL of the appropriate dilutions of the test compounds. After 4 days giant cell formation was recorded microscopically in the HIV-infected cell cultures [CEM], and after 5 days the number of viable cells was determined by trypan blue staining of the HIV-infected cell cultures [MT4].
(§2) The data columns are, in order: • HIV1 MT4: EC50 in μM for inhibition of HIV-1 in MT4 cells. • HIV2 MT4: EC50 in μM for inhibition of HIV-2 in MT4 cells. • CC50 MT4: CC50 in μM for toxicity to MT-4 cells. • HIV1 CEM: EC50 in μM for inhibition of HIV-1 in CEM cells. • HIV2 CEM: EC50 in μM for inhibition of HIV-2 in CEM cells. • HIV2 CEM-TK-: EC50 in μM for inhibition of HIV-2 in CEM/TK^− cells. • CC50 CEM: CC50 in μM for toxicity to CEM cells. • EC50 MSV: EC50 in μM for inhibition of MSV • MCC MSV: Minimum cytotoxic concentration in MSV assay

HIV-2 [1] = test: Inhibition of HIV-2 in CEM/TK- cells; type: cell-based
In short: (§3)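 Trypan blue staining of MT-4 cultures on day 5 gave viable cell numbers; CEM cultures were checked microscopically for giant cells on day 4. Both cell types were infected at 100 CCID50/mL (5×10^5 cells/mL) and incubated with compound dilutions.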

C8166 cells = test: Toxicity in C8166 cells (MTT-Formazen); type: cell-based; details: Table 3
Method: (§4) C8166 cells. Cells were grown in RPMI 1640 with 10% calf serum. 4×10^4 cells per microtiter plate well were mixed with 5-fold dilutions of compound prior to addition of 10 CCID50 units of III-B strain of HIV-1 and incubated for 5–7 days (Betbeder et al. Antiviral Chem. Chemother. 1, 241–247, 1990). Formation of syncytia was examined from 2 days post-infection. Culture fluid was collected at 5–7 days and gp120 antigen production measured by ELISA (Mahmood and Hay, J. Immunol. Meth., 151, 9–13, 1992). […] Cell viability of infected and uninfected cells were assessed by the MTT-Formazen method (Pauwels et al. J. Virol. Meth. 20, 309–321, 1988).
(§5) Each assay was carried out in duplicate, on at least two separate occasions, and data quoted are the average of each separate assay.

HIV-2 [2] = test: Inhibition of HIV-2 in MT4 cells; type: cell-based; details: read-out: HIV2 MT4: EC50 for inhibition of HIV-2 in MT4 cells
Method: as §1, §2

III-B strain of HIV-1 = test: microbe, parasite or virus in culture; type: cell-based; details: for EC50: HIV1 in C8166 cells, Table 3, read-out: Activity EC50
Method: as §4, §5

HIV-1 [3] = test: Inhibition of HIV-1 in MT4 cells; type: cell-based; details: read-out: HIV1 MT4: EC50 for inhibition of HIV-1 in MT4 cells
Method: as §1, §2

HIV-1 [4] = test: microbe, parasite or virus in culture; details: read-out: HIV1 CEM: EC50 for inhibition of HIV-1 in CEM cells
In short: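 Infection used 100 CCID50 per mL on 5×10^5 cells/mL, followed by exposure to serial compound dilutions. Read-out: microscopic giant cell scoring after 4 days (CEM); trypan blue viable cell count after 5 days (MT-4).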

HIV-2 [5] = test: Inhibition of HIV-2 in CEM cells (giant cell formation); type: cell-based; details: read-out: HIV2 CEM: EC50 for inhibition of HIV-2 in CEM cells
In short: as §3

MT-4 cells = test: Toxicity to MT-4 cells; type: cell-based, human; details: read-out: CC50 MT4: CC50 for toxicity to MT-4 cells
Method: as §1, §2

[6] = Table 6, mean of two or more repeat experiments, read-out: HIV2 CEM-TK-: EC50 for inhibition of HIV-2 in CEM/TK^− cells
[7] = Table 6, mean of two or more repeat experiments
[8] = CEM/TK- cells, HIV-2, read-out: HIV2 CEM-TK-: EC50 for inhibition of HIV-2 in CEM/TK- cells

Row | Compound | CC50 (CEM cells) [µM] | EC50 (HIV-2 [1]; [6]) [µM] | CC50 (C8166 cells) [µM] | EC50 (HIV-2 [2]; [7]) [µM] | Selectivity CC50/EC50 × 10^3 (III-B strain of HIV-1) | EC50 (III-B strain of HIV-1) [µM] | EC50 (HIV-1 [3]; [7]) [µM] | EC50 (HIV-1 [4]; [7]) [µM] | EC50 (HIV-2 [5]; [7]) [µM] | CC50 (MT-4 cells; [7]) [µM] | EC50 (HIV-2 [1]; [8]) [µM] | EC50 (HIV-2 [2]; MT4 cells, HIV-2) [µM] | EC50 (HIV-1 [3]; MT4 cells, HIV-1) [µM] | EC50 (HIV-1 [4]; CEM cells, HIV-1) [µM] | EC50 (HIV-2 [5]; CEM cells, HIV-2) [µM] | CC50 (MT-4 cells; MT-4 cells) [µM]
1 | COC(=O)C(Cc1ccccc1)NP(=O)(OC[C@@H]1C=C[C@H](n2cc(C)c(=O)[nH]c2=O)O1)Oc1ccccc1 (some centres unmarked) [Compound 863, 2′,3′-dideoxy-2′,3′-didehydrothymidine-5′-(phenyl N-methoxy-phenylalaninyl) phosphoramidate] | 216 | 0.33 | 500 | 0.4 | 31.2 × 10^3 | 0.016 | 0.2 | 0.8 | 1.35 | 34 |  |  |  |  |  | 
2 | CCCOP(=O)(N[C@@H](C)C(=O)OC)OC[C@@H]1C=C[C@H](n2cc(C)c(=O)[nH]c2=O)O1 (some centres unmarked) [Compound 326] | ≥ 250 | 135 |  | 84 |  |  | 36 | > 230 | > 230 | > 250 |  |  |  |  |  | 
3 | COC(=O)C(C)NP(=O)(OC[C@@H]1C=C[C@H](n2cc(C)c(=O)[nH]c2=O)O1)Oc1c(F)c(F)c(F)c(F)c1F (some centres unmarked) [Compound 779, 2′,3′-dideoxy-2′,3′-didehydrothymidine-5′-(2,3,4,5,6-pentafluorophenyl-N-methylalaninyl) phosphoramidate] | 115 | 8.5 | 80 | 4.01 | 1.25 × 10^3 | 0.064 | 1.72 | 2.5 | 3.7 | 82 |  |  |  |  |  | 
4 | COC(=O)[C@H](C)NP(=O)(OCC1OC(n2cc(C)c(=O)[nH]c2=O)CC1N=[N+]=[N-])Oc1ccccc1 (stereo partly drawn) [Compound 462, 3′-Deoxy-3′-β-azidothymidine 5′-(phenylmethoxylalaninyl) phosphoramidate] |  |  |  |  |  |  |  |  |  |  | 30 | 11 | 33 | 27.5 | 40 | 121
5 | COC(=O)C(CCSC)NP(=O)(OCC1C=CC(n2cc(C)c(=O)[nH]c2=O)O1)Oc1ccccc1 (centres unmarked) [Compound 867, 2′,3′-dideoxy-2′,3′-didehydrothymidine-5′-(phenyl N-methoxymethioninyl) phosphoramidate] | ≥ 250 | 0.34 | > 1000 | 0.4 | >62.5 × 10^3 | 0.0016 | 0.2 | 0.6 | 0.8 | 22 |  |  |  |  |  | 
6 | Cc1cn(C2C=CC(COP(=O)(NC(Cc3ccccc3)C(=O)OCc3ccccc3)Oc3ccccc3)O2)c(=O)[nH]c1=O (centres unmarked) [Compound 877, 2′,3′-dideoxy-2′,3′-didehydrothymidine-5′-(phenyl N-methoxyglycinyl) phosphoramidate] | 44 | 0.24 | 80 |  | 267 × 10^3 | 0.0003 |  | 0.6 | 0.6 |  |  |  |  |  |  | 
7 | COC(=O)[C@H](C)NP(=O)(OC)OC[C@@H]1C=C[C@H](n2cc(C)c(=O)[nH]c2=O)O1 (some centres unmarked) [Compound 740] | > 250 | > 250 |  | 50.9 |  |  | 25.4 | 20 | 50 | > 250 |  |  |  |  |  | 
8 | COC(=O)C(C)NP(=O)(OCC1OC(n2cc(C)c(=O)[nH]c2=O)CC1N=[N+]=[N-])Oc1cccc(C(F)(F)F)c1 (stereo not drawn) [Compound 536, 3′-Deoxy-3′β-azidothymidine 5′-(m-trifluoromethylphenylmethoxylalaninyl) phosphoramidate] |  |  |  |  |  |  |  |  |  |  | 3 | 0.9 | 0.45 | 1 | 2 | 104
9 | Cc1cn([C@H]2C=C[C@@H](COP(=O)(NC(C)C(=O)OC(C)(C)C)Oc3ccccc3)O2)c(=O)[nH]c1=O (some centres unmarked) [Compound 893, 2′,3′-dideoxy-2′,3′-didehydrothymidine 5′-(phenyl N-tButyloxyalaninyl) phosphoramidate] | ≥ 250 | 0.74 | > 1000 |  | >5.0 × 10^3 | 0.2 |  | 0.85 | 1.1 |  |  |  |  |  |  | 
10 | COC(=O)C(Cc1ccccc1)NP(=O)(OCC1C=CC(n2cc(C)c(=O)[nH]c2=O)O1)OCC(Cl)(Cl)Cl (centres unmarked) [Compound 325] |  | 0.7 |  | 0.5 |  |  | 0.44 | 1 | 2 | > 100 |  |  |  |  |  | 
11 | CCOP(=O)(N[C@@H](C)C(=O)OC)OC[C@@H]1C=C[C@H](n2cc(C)c(=O)[nH]c2=O)O1 (some centres unmarked) [Compound 564] | ≥ 250 | > 48 |  | 62.6 |  |  | 28.5 | > 48 | > 240 | ≥ 250 |  |  |  |  |  | 
12 | COC(=O)[C@H](C)NP(=O)(OCC1OC(n2cc(C)c(=O)[nH]c2=O)CC1N=[N+]=[N-])Oc1cc(Cl)cc(Cl)c1 (stereo partly drawn) [Compound 550, 3′-Deoxy-3′-β-azidothymidine 5′-(3,5-dichlorophenylmethoxylalaninyl) phosphoramidate] |  |  |  |  |  |  |  |  |  |  | 12 | 1 | 0.5 | 1.4 | 3 | 98
13 | Cc1cn(C2C=CC(COP(=O)(N[C@@H](C)C(=O)OC3CCCCC3)Oc3ccccc3)O2)c(=O)[nH]c1=O (some centres unmarked) [Compound 892, 2′,3′-dideoxy-2′,3′-didehydrothymidine 5′-(phenyl N-cyclohexyloxyalaninyl) phosphoramidate] | 51.4 | 0.09 | 500 |  | 312 × 10^3 | 0.0016 |  | 0.065 | 0.075 |  |  |  |  |  |  | 
14 | Cc1cn(C2CC(N=[N+]=[N-])C(CO)O2)c(=O)[nH]c1=O (centres unmarked) [Cpd 499] |  |  |  |  |  |  |  |  |  |  | > 250 | 2.3 | 0.9 | 3 | 4 | > 250
15 | Cc1cn([C@H]2C=C[C@@H](COP(=O)(NC(Cc3ccccc3)C(=O)OC(C)(C)C)Oc3ccccc3)O2)c(=O)[nH]c1=O (some centres unmarked) [Compound 878, 2′,3′-dideoxy-2′,3′-didehydrothymidine-5′-(phenyl N-tert-butylphenylalaninyl) phosphoramidate] | 80 | 0.65 | 150 |  | 0.9 × 10^3 | 0.16 |  | 2 | 2 |  |  |  |  |  |  | 
16 | Cc1cn(C2C=CC(COP(=O)(Oc3ccc(Br)cc3Br)N(C)C(C)C(=O)O)O2)c(=O)[nH]c1=O (centres unmarked) [Compound 776, 2′,3′-dideoxy-2′,3′-didehydrothymidine-5′-(2,4-dibromophenyl N-methylalaninyl) phosphoramidate] | 16 | 0.025 | 100 |  | 125 × 10^3 | 0.0008 |  | 0.04 | 0.055 |  |  |  |  |  |  | 
